Experimental data: PMC10706821, “Folate-Appended Hydroxypropyl-β-Cyclodextrin Induces Autophagic Cell Death in Acute Myeloid Leukemia Cells” (International Journal of Molecular Sciences, 2023)

What was measured:
[1] = peripheral blood cell count after intraperitoneal administration; settings: for Hb / Plt / WBC: seven repeat injections, Day 8
Description: (§8) At 24 h after the first injection, and at 8 days after the last of seven repeat injections, peripheral blood was collected from the tail vein and analyzed by an automated blood cell counter (Celltacα MEK-6500; NIHON KOHDEN, Tokyo, Japan). Data are presented as the mean ± SEM of three independent experiments.

[2] = test system: THP1 cells; test: AML xenograft survival model; format: in vivo, BALB/c Rag-2/JAK3 double-deficient (BRJ) mice; settings: 20 days; for Median Survival Time: Figure 7B, HP-β-CyD 2086.5 mg/kg i.p. twice a day, FA-HP-β-CyD 249 mg/kg i.p. twice a day, Ara-C 100 mg/kg i.p., n = 6
Description: (§1) BALB/c Rag-2/JAK3 double-deficient (BRJ) mice were housed in a specific pathogen-free barrier facility and used for the xenograft transplantation experiments. All animal experiments were approved by the Institutional Review Board of Saga University and conducted in accordance with the institutional guidelines of animal care of Saga University.
(§2) HL-60 cells or THP-1 cells were injected intravenously into BRJ mice. After 72 h, mice were injected intraperitoneally with 200 μL of vehicle, FA-HP-β-CyD (15 mM, 249 mg/kg), or HP-β-CyD (150 mM, 2086.5 mg/kg) for 20 consecutive days, and survival was monitored daily. Ara-C (100 mg/kg) was injected intraperitoneally for 5 consecutive days from 72 h after transplantation. Venetoclax (25 mg/kg) was orally administered for 20 consecutive days from 72 h after transplantation. Chimerism of human leukemic cells in the BM was determined by flow cytometry after double staining with FITC-conjugated anti-human CD45 (BD Bioscience) and PE/Cy7-conjugated anti-mouse CD45 (BioLegend) antibodies. All surgery was performed under sodium pentobarbital anesthesia to minimize pain. Mice were euthanized with ether when they became moribund or were unable to obtain food or water, as recommended by Saga University institutional guidelines. Survival data were analyzed using a log-rank nonparametric test and presented as Kaplan–Meier survival curves (n = 6 for each group).

[3] = test system: HL-60 cells; test: AML xenograft survival model; format: in vivo, BALB/c Rag-2/JAK3 double-deficient (BRJ) mice; settings: HL-60 xenograft, 20 days; for Median Survival Time: HP-β-CyD 2086.5 mg/kg i.p. twice a day, FA-HP-β-CyD 249 mg/kg i.p. twice a day, n = 6
Description: as §1, §2

[4] = test system: AML cell lines; test: trypan blue dye exclusion, cell viability; format: cell-based, human; settings: 72 h; FA-HP-β-CyD up to 1 mM, HP-β-CyD up to 10 mM
Description: (§3) The trypan blue dye exclusion method was used to evaluate cell viability. Cells (HL-60, THP1, SKM1 and Kasumi1 cells) were seeded in flat-bottomed 96-well plates at a density of 1 × 10^4 cells in 100 µL medium per well and incubated with FA-HP-β-CyD (0, 0,1, 0.25, 0.5, 0.75, 1 mM) or HP-β-CyD (0, 1, 2.5, 5, 10 mM) for 72 h. Then, viable cells were counted. Cell proliferation was evaluated by a modified MTT assay using Cell Counting Kit-8 (Dojindo Molecular Technologies, Kumamoto, Japan), as previously described. AML cells were cultured in 96-well plates at a density of 1 × 10^4 cells in 100 µL medium per well and incubated with FA-HP-β-CyD or HP-β-CyD for 72 h. […] This method is capable of quantifying synergistic (CI < 1) and antagonistic (CI > 1) effects at different dose and effect levels.

[5] = test system: normal human bone marrow CD34-positive progenitor cells; test: methylcellulose colony formation assay; settings: 10 mM HP-β-CyD, 1 mM FA-HP-β-CyD, 1 week of culture
Description: Human bone marrow CD34 positive cells were purchased from LONZA (Bazel, Switzerland). […] After 1 week of culture, the number of colonies was counted using an inverted microscope. Data represent the mean number of colonies ± SEM (n = 3).

[6] = test system: AML cell lines; test: Annexin V and PI staining, statements over all AML cell lines; format: cell-based, human; settings: for apoptosis induction: four AML cell lines, 72 h
Description: PI and Annexin V (BD Biosciences, San Jose, CA, USA) staining was performed to assess apoptosis, as previously described [53]. Cells were filtered through nylon mesh and assessed using a FACSVerse flow cytometer (BD Biosciences). Data were analyzed using FlowJo software 10.8.2 (Tree Star, Inc., Ashland, OR, USA).

[7] = test system: SKM1; test: cell cycle analysis (PI, flow cytometry); format: cell-based, human
Description: (§4) Cell cycle analyses of AML cell lines (HL-60, THP1, SKM1, and Kasumi1 cells) were performed as described previously. In brief, 1 × 10^6 cells were treated with the indicated concentrations of CyDs. After 24 h of CyD treatment, cells were collected and fixed with 70% ethanol. Cells were then incubated at room temperature for 30 min with 0.1% Triton X-100/0.5% RNase A and stained with 50 μg/mL PI (BD Biosciences, San Jose, CA, USA). Cellular DNA content was analyzed by flow cytometry, and cell cycle profiles were determined in a FACS CantoII flow cytometer with CellQuest software (version 1.0.6, BD Biosciences).

[8] = test system: HL-60; test: cell cycle analysis (PI, flow cytometry); format: cell-based, human; settings: HL-60, 24 h
Description: as §4

[9] = test system: Kasumi1; test: cell cycle analysis (PI, flow cytometry); format: cell-based, human; settings: Kasumi1, 24 h
Description: as §4

[10] = test system: THP1; test: cell cycle analysis (PI, flow cytometry); format: cell-based, human; settings: THP1, 24 h
Description: as §4

[11] = test system: HL-60; test: cell viability with autophagy inhibitors (Cell Counting Kit-8); format: cell-based, human; settings: 1 mM FA-HP-β-CyD or 10 mM HP-β-CyD, chloroquine 20 μM, LY294002 50 μM, bafilomycin A1 1 nM
Description: (§5) HL-60 and THP1 cells (2 × 10^5 cells in 100 µL of RPMI-1640 medium per well) were seeded in flat-bottomed 96-well plates (Greiner Labortechnik, Hamburg, Germany) and treated with both 1 mM of FA-HP-β-CyD and 10 mM of HP-β-CyD at 37 °C for 2 h. The cells were then pretreated for 24 h with the autophagy inhibitors chloroquine (20 µM), LY294002 (50 μM; Fujifilm Wako Pure Chemicals Co., Ltd., Osaka, Japan), or bafilomycin A1 (1 nM; Funakoshi, Tokyo, Japan). Cell proliferation was assessed using Cell Counting Kit-8.

[12] = test system: THP1; test: as above; format: cell-based, human; settings: 1 mM FA-HP-β-CyD or 10 mM HP-β-CyD, chloroquine 20 μM, LY294002 50 μM, bafilomycin A1 1 nM
Description: as §5

[13] = test system: Kasumi-1; test: modified MTT assay (Cell Counting Kit-8), cell proliferation; format: cell-based, human; settings: Kasumi-1, 72 h
Description: as §3

[14] = test system: HL-60; test: as above; format: cell-based, human
Description: (§6) The trypan blue dye exclusion method was used to evaluate cell viability. Cells (HL-60, THP1, SKM1 and Kasumi1 cells) were seeded in flat-bottomed 96-well plates at a density of 1 × 10^4 cells in 100 µL medium per well and incubated with FA-HP-β-CyD (0, 0,1, 0.25, 0.5, 0.75, 1 mM) or HP-β-CyD (0, 1, 2.5, 5, 10 mM) for 72 h. Then, viable cells were counted. Cell proliferation was evaluated by a modified MTT assay using Cell Counting Kit-8 (Dojindo Molecular Technologies, Kumamoto, Japan), as previously described. AML cells were cultured in 96-well plates at a density of 1 × 10^4 cells in 100 µL medium per well and incubated with FA-HP-β-CyD or HP-β-CyD for 72 h. The half-maximal inhibitory concentration values (IC50) were determined by non-linear regression using CalcuSyn software version 1.1.1 (Biosoft, Cambridge, UK), as previously described. After obtaining IC50 values for each agent, the antileukemic activity of FA-HP-β-CyD plus cytosine arabinoside (Ara-C) or Venetoclax was evaluated, as previously described. […] CalcuSyn was used to calculate the fraction affected (Fa, in which a value of 0.25 indicates […]) and the CI. This method is capable of quantifying synergistic (CI < 1) and antagonistic (CI > 1) effects at different dose and effect levels.

[15] = test system: SKM-1; test: as above; format: cell-based, human
Description: as §6

[16] = test system: THP-1; test: as above; format: cell-based, human
Description: as §6

[17] = test system: HL-60; test: autophagosome formation (DAPGreen); format: cell-based, human; settings: HL-60, 1 or 10 mM, 2 h
Description: (§7) Autophagosome formation was evaluated using the DAPGreen-Autophagy Detection Kit (Dojindo Molecular Technologies). HL-60 and THP1 cells were cultured overnight in 6-well plates at a density of 5 × 10^5 or 1 × 10^6 cells. The cells were then washed once with culture medium and incubated with DAPGreen working solution at 37 °C for 30 min. After the cells were washed twice, CyDs (1 mM, 10 mM) were added to the wells and incubated for 2 h. The samples were analyzed using a flow cytometer (FACS Canto II) or a fluorescence microscope (Carl Zeiss, Jena, Germany).

[18] = test system: THP1; test: autophagosome formation (DAPGreen); format: cell-based, human; settings: THP1, 1 or 10 mM, 2 h
Description: as §7

[19] = mouse, in vivo, ip
Description: as §8

[20] = Figure 7A, Ara-C 100 mg/kg i.p.
[21] = Figure 7C, Venetoclax 25 mg/kg oral gavage daily

Compound | Median Survival Time [2] | Median Survival Time [3, 20] | Median Survival Time [3, 21] | cell viability (trypan blue) [4] | apoptosis induction [6] | effect on cell cycle status [8] | effect on cell cycle status [9] | effect on cell cycle status [10] | viability in the presence of autophagy inhibitors vs CyD alone [11] | viability in the presence of autophagy inhibitors vs CyD alone [12] | IC50 ([14]; Homo sapiens, HL-60) | IC50 ([15]; Homo sapiens, SKM-1, SKM1) | IC50 ([16]; Homo sapiens, THP-1, THP1) | other results
CC(O)COC[C@H]1O[C@@H]2O[C@H]3[C@H](O)[C@@H](O)[C@@H](O[C@H]4[C@H](O)[C@@H](O)[C@@H](O[C@H]5[C@H](O)[C@@H](O)[C@@H](O[C@H]6[C@H](O)[C@@H](O)[C@@H](O[C@H]7[C@H](O)[C@@H](O)[C@@H](O[C@H]8[C@H](O)[C@@H](O)[C@@H](O[C@H]1[C@H](O)[C@H]2O)O[C@@H]8COCC(C)O)O[C@@H]7COCC(C)O)O[C@@H]6COCC(C)O)O[C@@H]5COCC(C)O)O[C@@H]4COCC(C)O)O[C@@H]3COCC(C)O (stereo partly drawn) [HP-β-CyD, 2-Hydroxypropyl-β-cyclodextrin] | 49.5 days | 38 days | 35 days | reduced the cell viability of the AML cell lines in a dose-dependent manner | underwent apoptosis | dose-dependent increase in the percentage of cells in G2/M phase | dose-dependent increase in the percentage of cells in G2/M phase | dose-dependent increase in the percentage of cells in G2/M phase | not affected by the presence or absence of autophagy inhibitors | not affected by the presence or absence of autophagy inhibitors |  |  |  | change in blood cell counts compared with vehicle (PBS) ([1]; 8 days after intraperitoneal injection, exception: higher dose of HP-β-CyD (10,000 mg/kg b.i.d.)): no significant change; Hb ([1]; HP-β-CyD 2000 mg/kg i.p.): 12.4 ± 0.67 g/dL; Plt ([1]; HP-β-CyD 2000 mg/kg i.p.): 64.5 ± 2.29 ×10^4/μL; WBC ([1]; HP-β-CyD 2000 mg/kg i.p.): 44.7 ± 12.65 ×10^2/μL; Hb ([1]; HP-β-CyD 6000 mg/kg i.p.): 14.3 ± 0.25 g/dL; Plt ([1]; HP-β-CyD 6000 mg/kg i.p.): 60.2 ± 10.69 ×10^4/μL; WBC ([1]; HP-β-CyD 6000 mg/kg i.p.): 50.0 ± 2.34 ×10^2/μL; Plt ([1]; HP-β-CyD 10,000 mg/kg i.p.): 75.5 ± 17.83 ×10^4/μL; WBC ([1]; HP-β-CyD 10,000 mg/kg i.p., p < 0.05): 30.5 ± 1.65 ×10^2/μL; colony formation [5]: reduced colony numbers; mode of cell death at high concentration ([6]; 15 mM HP-β-CyD): appeared to undergo necrosis; effect on cell cycle status ([7]; SKM1, before and after exposure): no change in cell cycle; IC50 ([13]; Homo sapiens): 3.14 mM; IC50 ([14]; Homo sapiens, HL-60, 72 h): 7660 µM; IC50 ([15]; Homo sapiens, SKM-1, 72 h): 9440 µM; IC50 ([16]; Homo sapiens, THP-1, 72 h): 9050 µM
Nc1ccn([C@@H]2O[C@H](CO)[C@@H](O)[C@@H]2O)c(=O)n1 [Ara-C, cytarabine] | 45.5 days | 34 days |  |  |  |  |  |  |  |  | 0.495 µM | 0.6 µM | 7.19 µM | 
CC1(C)CCC(CN2CCN(c3ccc(C(=O)NS(=O)(=O)c4ccc(NCC5CCOCC5)c([N+](=O)[O-])c4)c(Oc4cnc5[nH]ccc5c4)c3)CC2)=C(c2ccc(Cl)cc2)C1 [Venetoclax] |  |  | 36 days |  |  |  |  |  |  |  | 0.0503 µM | 1.1 µM | 0.442 µM | 
folate-conjugated HP-β-CyD [FA-HP-β-CyD] | 50.5 days | 38 days | 35 days | reduced the cell viability of the AML cell lines in a dose-dependent manner | triggered early apoptosis in four AML cell lines in a dose-dependent manner | no alteration in cell cycle status | no alteration in cell cycle status | no alteration in cell cycle status | higher than that in the presence of FA-HP-β-CyD alone | higher than that in the presence of FA-HP-β-CyD alone |  |  |  | survival compared with vehicle-injected mice ([2]; 249 mg/kg i.p. b.i.d.): survived significantly longer; survival compared with vehicle-injected mice ([3]; 249 mg/kg i.p. b.i.d.): survived significantly longer; effect on cell cycle status (predicted, no experimental data) ([7]; SKM1): no change in the cell cycle status was predicted; IC50 [13]: 0.3 mM; number of autophagic vacuoles (DAPGreen fluorescence) [17]: increased; number of autophagic vacuoles (DAPGreen fluorescence) [18]: increased; IC50 ([14]; HL-60, 72 h): 620 µM; IC50 ([15]; SKM-1, 72 h): 200 µM; IC50 ([16]; THP-1, 72 h): 320 µM; adverse effects on white blood cell counts, hemoglobin concentrations, platelet counts [19]: no adverse effects
